Assay results taken from the supplement of paper PMC10307832.

Tests used:
Test in all cases: relative viability (nuclei count vs DMSO), 5 days (fraction); higher = more cells survive
[1] = compound: NC(=O)[C@@H](CCC(F)(F)F)N(Cc1ccc(-c2ncon2)cc1F)S(=O)(=O)c1ccc(Cl)cc1 [Avagacestat] + CC(=O)c1c(C)c2cnc(Nc3ccc(N4CCNCC4)cn3)nc2n(C2CCCC2)c1=O [Palbociclib] (partner 0.5 µM)
Method in brief: (§1)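 The day after seeding in 1536-well plates, lung cancer cell lines were treated by pin tool with a single drug, or with a fixed anchor-drug dose together with five library-drug doses (not always all listed) in √10 steps. After 5 days, a combined fix-and-stain solution (final 0.05% Triton X-100, 1% formaldehyde, 1 ug/ml Hoechst) was added. Nuclei counted on 4× images gave relative viability as treated counts over vehicle counts, reported as the median of duplicate plates.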

[2] = compound: NC(=O)[C@@H](CCC(F)(F)F)N(Cc1ccc(-c2ncon2)cc1F)S(=O)(=O)c1ccc(Cl)cc1 [Avagacestat] + O=C(c1cc(Cc2n[nH]c(=O)c3ccccc23)ccc1F)N1CCN(C(=O)C2CC2)CC1 [Olaparib] (partner 8 µM)
Method in brief: as §1

[3] = compound: NC(=O)[C@@H](CCC(F)(F)F)N(Cc1ccc(-c2ncon2)cc1F)S(=O)(=O)c1ccc(Cl)cc1 [Avagacestat] + Cc1nc(NC(=O)N2CCC[C@H]2C(N)=O)sc1-c1ccnc(C(C)(C)C(F)(F)F)c1 [Alpelisib] (partner 2 µM)
Method in brief: as §1

[4] = compound: NC(=O)[C@@H](CCC(F)(F)F)N(Cc1ccc(-c2ncon2)cc1F)S(=O)(=O)c1ccc(Cl)cc1 [Avagacestat] + Nc1nc2[nH]cc(CCc3ccc(C(=O)N[C@@H](CCC(=O)O)C(=O)O)cc3)c2c(=O)[nH]1 [Pemetrexed] (partner 0.2 µM)
Method in brief: as §1

Row | Cell Line | relative viability ([1]; first compound 0.08 µM) | relative viability ([1]; first compound 0.253 µM) | relative viability ([1]; first compound 0.8 µM) | relative viability ([1]; first compound 2.53 µM) | relative viability ([1]; first compound 8 µM) | relative viability ([2]; first compound 0.08 µM) | relative viability ([2]; first compound 0.253 µM) | relative viability ([2]; first compound 0.8 µM) | relative viability ([2]; first compound 2.53 µM) | relative viability ([2]; first compound 8 µM) | relative viability ([3]; first compound 0.08 µM) | relative viability ([3]; first compound 0.253 µM) | relative viability ([3]; first compound 0.8 µM) | relative viability ([3]; first compound 2.53 µM) | relative viability ([3]; first compound 8 µM) | relative viability ([4]; first compound 0.08 µM) | relative viability ([4]; first compound 0.253 µM) | relative viability ([4]; first compound 0.8 µM) | relative viability ([4]; first compound 2.53 µM) | relative viability ([4]; first compound 8 µM)
1 | HCC-78 | 0.493 | 0.488 | 0.511 | 0.478 | 0.441 | 0.786 | 0.948 | 0.632 | 0.67 | 0.712 | 0.299 | 0.358 | 0.347 | 0.269 | 0.321 | 0.901 | 0.976 | 0.933 | 0.883 | 0.851
2 | HCC-366 | 0.355 | 0.34 | 0.465 | 0.332 | 0.333 | 0.45 | 0.461 | 0.378 | 0.402 | 0.308 | 0.749 | 0.679 | 0.565 | 0.361 | 0.308 | 0.199 | 0.195 | 0.191 | 0.161 | 0.142
3 | HCC-827 | 0.468 | 0.478 | 0.503 | 0.442 | 0.465 | 0.724 | 0.734 | 0.687 | 0.607 | 0.656 | 1.04 | 0.984 | 1.05 | 0.874 | 0.972 | 0.304 | 0.271 | 0.296 | 0.221 | 0.257
4 | HOP-62 | 0.461 | 0.482 | 0.412 | 0.458 | 0.366 | 0.411 | 0.502 | 0.211 | 0.564 | 0.371 | 1 | 0.908 | 0.971 | 0.94 | 0.889 | 0.344 | 0.359 | 0.329 | 0.312 | 0.29
5 | IA-LM |  |  |  |  |  | 1.33 | 1.37 | 1.15 | 1.06 | 1.05 | 1.09 | 1.62 | 1.74 | 1.43 | 1.16 |  |  |  |  | 
6 | LC-2-ad | 0.483 | 0.472 | 0.529 | 0.439 | 0.381 | 0.853 | 0.794 | 0.826 | 0.783 | 0.679 | 0.798 | 0.707 | 0.769 | 0.81 | 0.788 | 0.286 | 0.276 | 0.264 | 0.263 | 0.273
7 | LCLC-97TM1 | 0.294 | 0.264 | 0.312 | 0.185 | 0.206 | 0.533 | 0.463 | 0.555 | 0.309 | 0.307 | 0.265 | 0.224 | 0.185 | 0.186 | 0.218 | 0.177 | 0.177 | 0.159 | 0.166 | 0.146
8 | LCLC-103H | 0.54 | 0.444 | 0.473 | 0.501 | 0.446 | 0.809 | 0.617 | 0.845 | 0.745 | 0.766 | 0.983 | 0.939 | 1.01 | 0.842 | 0.753 | 0.448 | 0.412 | 0.433 | 0.456 | 0.486
9 | LK-2 | 0.949 | 0.818 | 0.64 | 0.542 | 0.824 | 0.846 | 0.806 | 0.8 | 0.505 | 0.77 | 1.51 | 1.61 | 0.949 | 1.02 | 1 | 0.272 | 0.294 | 0.314 | 0.251 | 0.264
10 | LOU-NH91 | 0.533 | 0.482 | 0.574 | 0.52 | 0.525 | 0.964 | 0.983 | 0.966 | 0.914 | 0.926 | 0.712 | 0.724 | 0.779 | 0.608 | 0.738 | 0.389 | 0.344 | 0.431 | 0.427 | 0.336
11 | LU99A | 0.407 | 0.429 | 0.472 | 0.414 | 0.366 | 0.254 | 0.259 | 0.269 | 0.265 | 0.243 | 0.659 | 0.498 | 0.529 | 0.51 | 0.483 | 0.25 | 0.232 | 0.182 | 0.226 | 0.155
12 | NCI-H522 | 1.13 | 1.2 | 1.08 | 0.954 | 0.946 | 0.566 | 0.715 | 0.656 | 0.691 | 0.621 |  |  |  |  |  | 0.933 | 1.27 | 0.774 | 1.04 | 1.07
13 | NCI-H596 |  |  |  |  |  | 0.741 | 0.62 | 0.804 | 0.613 | 0.573 | 0.584 | 0.482 | 0.479 | 0.466 | 0.491 | 0.594 | 0.56 | 0.578 | 0.528 | 0.503
14 | NCI-H727 | 0.578 | 0.577 | 0.606 | 0.684 | 0.672 | 0.735 | 0.875 | 0.698 | 0.745 | 0.788 | 0.749 | 0.682 | 0.695 | 0.467 | 0.558 |  |  |  |  | 
15 | NCI-H1299 |  |  |  |  |  | 0.97 | 1.07 | 0.975 | 0.979 | 0.929 | 1.1 | 1.18 | 1.08 | 1.02 | 0.886 |  |  |  |  | 
16 | NCI-H1563 |  |  |  |  |  |  |  |  |  |  | 0.925 | 0.989 | 0.937 | 0.934 | 0.8 | 0.811 | 0.664 | 0.82 | 0.711 | 0.683
17 | NCI-H1648 | 0.237 | 0.271 | 0.289 | 0.256 | 0.284 | 0.678 | 0.806 | 0.516 | 0.437 | 0.534 |  |  |  |  |  | 0.572 | 0.505 | 0.451 | 0.467 | 0.505
18 | NCI-H1650 | 0.318 | 0.241 | 0.406 | 0.331 | 0.351 | 0.961 | 0.893 | 0.86 | 0.917 | 0.936 |  |  |  |  |  | 0.357 | 0.387 | 0.365 | 0.381 | 0.382
19 | NCI-H1703 |  |  |  |  |  | 0.489 | 0.297 | 0.421 | 0.264 | 0.335 | 0.444 | 0.387 | 0.405 | 0.378 | 0.385 |  |  |  |  | 
20 | NCI-H2342 | 0.527 | 0.482 | 0.523 | 0.523 | 0.552 | 0.441 | 0.384 | 0.486 | 0.458 | 0.451 |  |  |  |  |  | 0.849 | 0.803 | 0.903 | 0.725 | 0.782
